Test results reported in a melting point compilation (Tetko et al.; mined from patent text by program, amines drawn as free bases though some values may be those of a salt).

| Compound | melting point [°C] |
| --- | --- |
| CCc1ccc(S(=O)(=O)c2ccc(C)nc2Nc2ccc(OC)cc2Cl)cc1 | 110 to 112 |
| O=C(O)c1cccc(NCc2cccnc2)c1C(=O)O | 231 to 233 |
| O=C(CC(F)(F)F)N[C@H]1CC[C@H](CCN2CCC(c3cccc4c3CCO4)CC2)CC1 | 197 |
| CC(C)(C)OC(=O)c1ncn2c1COc1ccccc1-2 | 119 to 123 |
| COc1cc(Nc2nccc(-c3ccc(N4CCN(CCO)CC4)nc3)n2)cc(OC)c1OC | 156 to 157 |
| O=c1oc(-c2cccc(Oc3ccccc3)c2)cc(O)c1SCCc1ccccc1 | 114 to 115 |
| CS(=O)(=O)c1ccc(-c2oc(CO)nc2-c2ccc(F)cc2)cc1 | 156 to 157 |
| CN1C(C(=O)NC2N=C3CCSC=C3S2)=C(O)c2ccc3ccccc3c2S1(=O)=O (stereo not drawn) | 255 |
| Cc1cc2c(cc1Cl)C(CC(=O)O)(c1ccccc1OC(C)C)C(=O)N2 (stereo not drawn) | 148 to 150 |
| O=C(Nc1ccc(F)nc1)OCC(Cl)(Cl)Cl | 114 to 115 |
| O=C(O)CCCc1cc2nc(Cl)ccc2n1S(=O)(=O)c1ccc(OC(F)(F)F)cc1 | 168 |
| CCCCCCCCCCOc1cc(OCCCCCCCCCC)cc(N(CC(=O)O)CC(=O)OC)c1 | 61 to 62 |
| Cn1ccc2ncnc(Oc3ccc(NC(=O)Nc4cc(C(F)(F)F)ccc4F)c(Cl)c3)c21 | 193 to 197 |
| O=C(NCCc1cccc(-c2nc(=O)c3ccccc3s2)n1)c1ccccc1 | 202 to 203 |
| CN(C)C(=O)CC1Cc2ccccc2NC1=O (stereo not drawn) | 172 to 173 |
| Nc1cc(-n2cc(C(=O)O)c(=O)c3cc(F)c(Cl)nc32)ccc1F | > 270 |
| O=C(NCCO)c1cc(-c2cccc3nn(Cc4cccc(C(F)(F)F)c4)cc23)ccn1 | 131 to 132 |
| O=C(c1ccc(Cl)cc1)c1ccc(SC(F)(F)F)cc1 | 78 to 79 |
| O=C1C=CCC2=C3C(=CCN3C13COc1cc4c(cc13)OCO4)CCC2 (stereo not drawn) | 176 to 177 |
| CCCN(c1ncccc1N)C1CCN(Cc2ccccc2)CC1 | 73 to 74 |

| Compound | melting point [°C] |
| --- | --- |
| CC(=O)Nc1c(C)nn(C)c1C | 118 to 119 |
| S=C(Nc1ccccc1)N(Cc1ccc(Cl)cc1)C1CCCC1 | 129 to 132 |
| O=C(Nc1ccncc1)Nc1c(Cl)cccc1Cl | 217 to 219 |
| CCCCOc1cc(-n2c(=O)cc(C(F)(F)F)n(C)c2=O)c(F)cc1Br | 73 |
| CCCC(NC(=O)Nc1cccc(C)c1)C(=S)N(CC(=O)OC(C)(C)C)c1ccccc1 (racemic) | 142 |
| COc1cc(NS(C)(=O)=O)c(Oc2ccccc2)cc1C(C)=O | 108 to 110 |
| O=[N+]([O-])c1ccc(-c2ccc(-c3ccc([N+](=O)[O-])cc3Cl)o2)c(Cl)c1 | 247 to 248 |
| COc1ccc2c(c1)c(Cc1nc(-c3ccc(F)cc3)cs1)c(C)n2C(=O)c1ccc(Cl)cc1 | 172 to 174 |
| Clc1cc(CBr)ccc1-c1ccccc1C1=NNN(C(c2ccccc2)(c2ccccc2)c2ccccc2)N1 | 15 to 60 |
| N=C(Nc1ccc(Cl)cc1)NC1CC2C3CC4C2C4C13 (stereo not drawn) | 170 to 171 |
| CCC(CC)c1nn(-c2ccc(Cl)cn2)cc1CCCOc1c(C)cccc1CC(=O)O | 106 to 107 |
| CC(C1CC1)N(CCCc1c[nH]c2ccc(F)cc12)C1COc2c(F)ccc(C(N)=O)c2C1 (stereo not drawn) | 124 |
| N#Cc1ccc(N2C(=O)N(CCF)C3(CCCC3)C2=O)cc1C(F)(F)F | 115 |
| COC(=O)C1(CCCN2CCN(c3ccccc3)CC2)Sc2cc(OC)ccc2OCC1=O (stereo not drawn) | 110 to 112 |
| Nc1cc(F)ccc1Nc1ccccc1 | 83 to 84 |
| COc1cc2ncc(C#N)c(Nc3ccc(F)c(Cl)c3)c2cc1NC(=O)C=CCN(C)OC | 210 to 217 |
| CC(C)(CCn1cnnc1)NCC(O)c1ccc(OCc2ccccc2)c(CO)c1 (stereo not drawn) | 139 to 141 |
| COc1c(N2C[C@@H](N)[C@@H](C)C2)c(F)cc2c(=O)c(C(=O)O)cn(C3CC3)c12 (relative stereo) | 192 to 194 |
| Cc1cccc(C)c1-n1cnc(NCC(F)(F)F)nc1=O | 212 to 213 |
| COCc1cnc2c(N)cc(C)cc2c1Cl | 135 to 138 |

| Compound | melting point [°C] |
| --- | --- |
| Cc1nccn1-c1cccc(C2=Nc3cc(O)c(-c4ccccc4F)cc3NC(=O)C2)c1 | > 250 |
| CC(C)(C)OCOc1cc(NC(=O)NC(=O)c2ccc(C(N)=S)cc2)ccc1OCC(=O)OC(C)(C)C | 198 to 199 |
| O=c1[nH]c2ncc(Br)cc2o1 | 229 to 230 |
| CC(=O)Nc1cc2c(s1)C(c1ccccc1)CN(C)CC2 (stereo not drawn) | 180 |
| COc1ccc(C(=O)C=Cc2cccc([N+](=O)[O-])c2)c(OC)c1OC | 130 to 131 |
| O=C(O)c1ccc(=O)n(CCNC(=O)c2ccncc2)c1 | > 300 |
| O=c1cc(-c2nc[nH]n2)oc2ccccc12 | 210 |
| CN(CN1C(=O)c2ccccc2C1=O)c1c(S(=O)C(F)(F)F)c(C#N)nn1-c1c(Cl)cc(C(F)(F)F)cc1Cl (stereo not drawn) | 163 |
| CCOc1cc2c(cc1OCC)C(C(C#N)SCCC(=O)O)=NCC2 (stereo not drawn) | 106 to 108 |
| Cc1cc(CN2N=C(C(F)(F)C(F)(F)F)NC2(O)c2ccc(Cl)cc2)ccc1[N+](=O)[O-] (stereo not drawn) | 90 to 92 |
| CSC1=Nc2ccccc2N2CCN(c3ccccc3)CCN12 | 125 to 127 |
| CC(C)(C)CCCOC1CCC2C3CC=C4CC(O[Si](C)(C)C(C)(C)C)CCC4(C)C3CCC12C (stereo not drawn) | 138 to 139 |
| CCOC(=O)c1ncc2[nH]c3ccc(C(=O)N4CCCCC4)cc3c2c1C | 212 to 218 |
| Nc1nsnc1-c1ccc(Cl)cc1 | 132 to 133 |
| O=c1[nH]cnc(N=Nc2ccccc2)c1O | 244 to 245 |
| CCOC(=O)CCc1nnc(-c2nccs2)c2cc(OC)ccc12 | 153 to 154 |
| CCN1CCC(C(=O)O)(S(=O)(=O)c2ccc(Oc3ccc(Cl)cc3)cc2)CC1 | 184 |
| COc1nc(C)c(C)nc1NC(=O)N1CCN(c2ccc(C(C)=O)cc2)CC1 | 166 to 168 |
| CC(C)(C)OC(=O)Nc1ccc(C#Cc2ccccc2F)cc1NC(=O)CC(=O)c1cccc(C#N)c1 | 216 to 217 |

Continued, values first:

| melting point [°C] | Compound |
| --- | --- |
| 90 to 94 | COc1ccc(C2(c3ccc(N(C)C)cc3N(C)C)OC(=O)c3cc(N(C)C)ccc32)cc1 (stereo not drawn) |
| 282 to 283 | O=C(NCc1ccc(Cl)cc1)c1cnc2ccc(Br)cc2c1O |
| 154 to 156 | CCc1cc(C(=O)O)c2cc(C(C)C)cccc1-2 |
| 138 to 140 | O=c1ccccn1[C@@H]1C[C@H](O)[C@@H](O)[C@H]1O (racemic) |
| 187 to 188 | Cc1cc2nc(N3CCC(=S)CC3)nc(N)c2cc1C |
| 132 | CCCc1nc(C)n2nc(C)nc2c1Cc1ccc(-c2ccccc2C#N)cc1 |
| 230 | N#Cc1c(N)sc(C=O)c1Sc1ccccc1 |
| 164 to 166 | N#Cc1cc(-c2ccnc(Nc3cccc(C(F)(F)F)c3)n2)ccn1 |
| 150 to 151 | C=C(C)c1nc(CCC)n(Cc2ccc(-c3ccccc3C(=O)C(=O)O)cc2)c1C(=O)O |
| 64 to 65 | CC(C)(C)[C@H]1CC[C@@H](Nc2nnc(Cc3ccncc3)c3ccccc23)CC1 |
| 187 to 189 | O=C(Nc1ccc(C(=O)N2CCCCc3sc(Cl)cc32)cc1)c1ccc(Cl)cc1Cl |
| 59 to 62 | COc1c(Cl)cc(F)cc1C=O |
| 110 to 112 | CCCCCCCN(CCCCCSc1nc(-c2ccc(O)cc2)c(-c2ccc(O)cc2)[nH]1)C(=O)Nc1ccc(F)cc1F |
| > 300 | O=c1[nH]c2ccc(F)cc2n2ccnc12 |
| 291 to 293 | CCCC1(CCC)c2cc(-c3nc4cc(C)ccc4o3)ccc2-c2cc(O)c(-c3nc4cc(C)ccc4o3)cc21 |
| 132 to 135 | CC(C)(C)C(=O)Oc1cc([N+](=O)[O-])cc([N+](=O)[O-])c1O |
| 180 to 184 | Oc1ccc([C@H]2CC[C@H](NCCNc3ccccc3)CC2)cc1 |
| 91 to 92 | COc1ccc(C(OC(C)=O)c2sccc2C=O)cc1OC (stereo not drawn) |
| 69 to 70 | c1ccc(-c2cnccn2)cc1 |
| 190 to 194 | CCN(CC)C(=O)c1c(OC)cccc1S(N)(=O)=O |

| melting point [°C] | Compound |
| --- | --- |
| 118 to 125 | CS(=O)(=O)c1ccc(-c2cnn(-c3ccc(Oc4ccccc4)cc3)c(=O)c2-c2ccc(F)cc2)cc1 |
| 203 | NS(=O)(=O)c1ccc(C(=O)NCc2ccccc2)s1 |
| 148 to 149 | Cc1nc2c(N[C@@H]3c4ccccc4C[C@H]3O)cc(C(=O)N(C)C)cn2c1C (relative stereo) |
| 180 | O=C1NC(=Cc2ccc(Cl)cc2Cl)C(=O)C1=NO |
| 178 to 188 | O=C(NC(c1ccccc1)c1cc2ccncc2[nH]1)c1cccnc1 (stereo not drawn) |
| 115 to 117 | CCOC(=O)NC1Cc2ccccc2C1Nc1ccccc1CO (stereo not drawn) |
| 115 to 116 | C=CCOc1ccc(OC)cc1C(=O)c1oc2ccc(Cl)cc2c1N |
| 104 to 106 | C#CCOC(=O)Oc1ccc(C(=O)c2ccc(OC(=O)OCC#C)cc2)cc1 |
| 199 to 201 | CC1=CC(c2ccc(Cl)c(Cl)c2)C2=C(CCCC2=O)N1 (stereo not drawn) |
| 166 to 168 | COC(=O)N1c2cc(F)ccc2NC(=O)C1(C)C |
| 111 to 115 | N#Cc1cn(C(CO)CCc2ccccc2)cn1 (stereo not drawn) |
| 195 to 200 | CCCC(=O)Nc1cc(NC(=O)CCC)c2ccc(C)nc2c1OC(=O)CCC |
| 89 to 90 | O=C1CCC(c2ccc(-c3ccc(Cl)c(Cl)c3)o2)O1 (stereo not drawn) |
| 196 to 198 | CNC(=S)n1nc(Nc2ccccc2)nc1N |
| 89 to 92 | CCCCCCCCCCCCCCCc1cc2cc(C(=O)OC)ccc2[nH]1 |
| 267 to 270 | O=c1[nH]c(SCc2ccccc2)nc2c1NCN2C(c1ccccc1)(c1ccccc1)c1ccccc1 |
| 158 to 160 | CCCN1C(=O)C2(COc3cc4c(cc32)OCO4)c2ccccc21 (stereo not drawn) |
| 142 to 146 | Cc1nc(N2CCc3ccccc3CC2)c(C#N)c(=O)n1NC(C)C |
| 148 | CS(=O)(=O)c1ccc(-c2cc(CO)nn2C2CCCCC2)cc1 |
